Reference: patent US20180186815A1, “PHARMACEUTICAL COMPOSITIONS, METHODS FOR THEIR PREPARATION AND THEIR USE IN THE TREATMENT OF CANCER” (Urifer Ltd., priority 2016, published 2018)
Where two headings read alike, the source gives them in different places.

Tests used:
Assay type in all cases: cell-based
[1] = tested on: colon cancer cell line RKO; test: Growth profile / viability of RKO colon cancer cells, XTT test; conditions: 96 h, Control DMSO = 100%, read-out: percentage of viable cells, RKO
Procedure, shortened: (§1)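 Cells were seeded and grown untreated overnight, then exposed to compounds at a final 5 μM (0.4% v/v DMSO). Untreated and 0.4% DMSO-only cells were the controls. Percent viable cells was measured by XTT 96 h after compound addition.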

[2] = tested on: colon cancer cell line HCT 116; test: Growth profile / viability of HCT116 colon cancer cells, XTT test; conditions: Homo sapiens, HCT-116, 96 h, Control DMSO = 100%, read-out: percentage of viable cells, HCT116
Procedure, shortened: as §1

[3] = Viability of FS non malignant fibroblastic cells, XTT test; conditions: FS cells (non-malignant fibroblastic cell line), Control DMSO = 100%, read-out: percentage of viable cells, FS
Procedure, shortened: as §1

[4] = tested on: colon cancer cell line HT29; test: Growth profile / viability of HT29 colon cancer cells, XTT test; conditions: Homo sapiens, HT-29, 96 h, Control DMSO = 100%, read-out: percentage of viable cells, HT29
Procedure, shortened: as §1

Q: With `CC(C)c1ccc(-c2cn3nc(N4CCC(C(=O)N5CCN(c6ncccn6)CC5)CC4)sc3n2)cc1` [Compound Z522-0227, 6-(4-isopropyl-phenyl)-2-{4-[(4-pyrimidin-2-ylpiperazin-1-yl)carbonyl]piperidin-1-yl}imidazo[2,1-b][1,3,4]thiadiazole] as the compound, how does the viability at 5 µM ([1]; first RKO column) read?
A: 63%

Q: And the viability at 5 µM ([1]; second RKO column)?
A: 63%

Q: And the viability at 5 µM ([2]; first HCT116 column)?
A: 72%

Q: What about the viability at 5 µM ([2]; second HCT116 column) of the same compound?
A: 84%

Q: What about the viability at 96 h, 5 µM ([3]; first FS column) of the same compound?
A: 89%

Q: What about the viability at 96 h, 5 µM ([3]; second FS column) of the same compound?
A: 91%

Q: What about the viability at 5 µM ([4]; first HT29 column) of the same compound?
A: 91%

Q: What about the viability at 5 µM ([4]; second HT29 column) of the same compound?
A: 91%

Q: Which results are given for `CC(C)c1ccc(-c2cn3nc(N4CCC(C(=O)N(C)CCc5ccncc5)CC4)sc3n2)cc1` [Compound Z522-0228, 1-[6-(4-isopropylphenyl)imidazo[2,1-b][1,3,4]thiadiazol-2-yl]-N-methyl-N-(2-pyridin-4-ylethyl)piperidine-4-carboxamide]?
A: viability at 5 µM ([1]; first RKO column): 51%; viability at 5 µM ([1]; second RKO column): 55%; viability at 5 µM ([2]; first HCT116 column): 82%; viability at 5 µM ([2]; second HCT116 column): 70%; viability at 96 h, 5 µM ([3]; first FS column): 111%; viability at 96 h, 5 µM ([3]; second FS column): 113%; viability at 5 µM ([4]; first HT29 column): 58%; viability at 5 µM ([4]; second HT29 column): 61%

Q: What does the source list for `CC(C)c1ccc(-c2cn3nc(N4CCC(C(=O)N5CCN(CCN(C)C)CC5)CC4)sc3n2)cc1` [Compound Z522-0229, {2-[4-({1-[6-(4-isopropylphenyl)imidazo[2,1-b][1,3,4]thiadiazol-2-yl]piperidin-4-yl}carbonyl)piperazin-1-yl]ethyl} dimethylamine]?
A: viability at 5 µM ([1]; first RKO column): 45%; viability at 5 µM ([1]; second RKO column): 47%; viability at 5 µM ([2]; first HCT116 column): 87%; viability at 5 µM ([2]; second HCT116 column): 99%; viability at 96 h, 5 µM ([3]; first FS column): 79%; viability at 96 h, 5 µM ([3]; second FS column): 101%; viability at 5 µM ([4]; first HT29 column): 74%; viability at 5 µM ([4]; second HT29 column): 77%

Q: With `Cc1ccc(C)n1CCN1CCN(C(=O)C2CCN(c3nn4cc(-c5ccc(C(C)C)cc5)nc4s3)CC2)CC1` [Compound Z522-0232, 2-[4-({4-[2-(2,5-dimethyl-1H-pyrrol-1-yl)ethyl]piperazin-1-yl}carbonyl)piperidin-1-yl]-6-(4-isopropylphenyl) imidazo[2,1-b][1,3,4]thiadiazole] as the compound, how does the viability at 5 µM ([1]; first RKO column) read?
A: 35%

Q: What about the viability at 5 µM ([1]; second RKO column) of the same compound?
A: 38%

Q: And the viability at 5 µM ([2]; first HCT116 column)?
A: 79%

Q: What about the viability at 5 µM ([2]; second HCT116 column) of the same compound?
A: 68%

Q: And the viability at 96 h, 5 µM ([3]; first FS column)?
A: 106%

Q: And the viability at 96 h, 5 µM ([3]; second FS column)?
A: 93%

Q: And the viability at 5 µM ([4]; first HT29 column)?
A: 20%

Q: And the viability at 5 µM ([4]; second HT29 column)?
A: 22%

Q: With `CC(C)c1ccc(-c2cn3nc(N4CCC(C(=O)N5CCCCC5CCN5CCCCC5)CC4)sc3n2)cc1` (stereo not drawn) [Compound Z522-0233, 6-(4-isopropylphenyl)-2-(4-{[2-(2-piperidin-1-ylethyl)piperidin-1-yl]carbonyl}piperidin-1-yl)imidazo[2,1-b][1,3,4]thiadiazole] as the compound, how does the viability at 5 µM ([1]; second RKO column) read?
A: 0%

Q: What about the viability at 5 µM ([2]; first HCT116 column) of the same compound?
A: 1%

Q: What about the viability at 96 h, 5 µM ([3]; second FS column) of the same compound?
A: 3%

Q: What about the viability at 5 µM ([4]; first HT29 column) of the same compound?
A: 1%

Q: And the viability at 5 µM ([4]; second HT29 column)?
A: 0%

Q: Which viability at 5 µM ([1]; first RKO column) does the source give for `CC(C)c1ccc(-c2cn3nc(N4CCC(C(=O)N5CCCC(CN6CCOCC6)C5)CC4)sc3n2)cc1` (stereo not drawn) [Compound Z522-0237, 6-(4-isopropyl-phenyl)-2-(4-{[3-(morpholin-4-yl-methyl)piperidin-1-yl]carbonyl}piperidin-1-yl)imidazo[2,1-b][1,3,4]thiadiazole] here?
A: 11%

Q: What about the viability at 5 µM ([1]; second RKO column) of the same compound?
A: 8%

Q: What about the viability at 5 µM ([2]; first HCT116 column) of the same compound?
A: 74%

Q: What about the viability at 5 µM ([2]; second HCT116 column) of the same compound?
A: 89%

Q: What about the viability at 96 h, 5 µM ([3]; first FS column) of the same compound?
A: 82%

Q: And the viability at 96 h, 5 µM ([3]; second FS column)?
A: 105%

Q: What about the viability at 5 µM ([4]; first HT29 column) of the same compound?
A: 13%

Q: What about the viability at 5 µM ([4]; second HT29 column) of the same compound?
A: 8%

Q: With `CC(C)c1ccc(-c2cn3nc(N4CCC(C(=O)N5CCN(CC(=O)N6CCN(C)CC6)CC5)CC4)sc3n2)cc1` [Compound Z522-0238, 6-(4-isopropylphenyl)-2-[4-({4-[2-(4-methylpiperazin-1-yl)-2-oxoethyl]piperazin-1-yl}carbonyl)piperidin-1-yl]imidazo[2,1-b][1,3,4]thiadiazole] as the compound, how does the viability at 5 µM ([1]; first RKO column) read?
A: 1%

Q: And the viability at 5 µM ([1]; second RKO column)?
A: 3%

Q: And the viability at 5 µM ([2]; first HCT116 column)?
A: 54%

Q: And the viability at 5 µM ([2]; second HCT116 column)?
A: 49%

Q: And the viability at 96 h, 5 µM ([3]; first FS column)?
A: 85%

Q: And the viability at 96 h, 5 µM ([3]; second FS column)?
A: 99%

Q: And the viability at 5 µM ([4]; first HT29 column)?
A: 6%

Q: And the viability at 5 µM ([4]; second HT29 column)?
A: 7%

Q: For `CC(C)c1ccc(-c2cn3nc(N4CCC(C(=O)N(C)CC(=O)NCCN(C)C)CC4)sc3n2)cc1` [Compound Z522-0239, N^4-(2-[2-(dimethylamino)ethyl]amino-2-oxoethyl)-1-[6-(4-isopropylphenyl)imidazo[2,1-b][1,3,4]thiadiazol-2-yl]-N^4-methyl-4-piperidinecarboxamide], which viability at 5 µM ([1]; first RKO column) is on record?
A: 1%

Q: And the viability at 5 µM ([1]; second RKO column)?
A: 1%

Q: And the viability at 5 µM ([2]; first HCT116 column)?
A: 80%

Q: What about the viability at 5 µM ([2]; second HCT116 column) of the same compound?
A: 45%

Q: What about the viability at 96 h, 5 µM ([3]; first FS column) of the same compound?
A: 83%

Q: And the viability at 96 h, 5 µM ([3]; second FS column)?
A: 96%

Q: And the viability at 5 µM ([4]; first HT29 column)?
A: 3%

Q: And the viability at 5 µM ([4]; second HT29 column)?
A: 2%

Q: For `CC(C)c1ccc(-c2cn3nc(N4CCC(C(=O)N(C)CC(=O)N5CCN(C)CC5)CC4)sc3n2)cc1` [Compound Z522-0240, 1-[6-(4-isopropylphenyl)imidazo[2,1-b][1,3,4]thiadiazol-2-yl]-N^4-methyl-N^4-[2-(4-methyl-piperazino)-2-oxoethyl]-4-piperidinecarboxamide], which viability at 5 µM ([1]; first RKO column) is on record?
A: 19%

Q: What about the viability at 5 µM ([1]; second RKO column) of the same compound?
A: 15%

Q: What about the viability at 5 µM ([2]; first HCT116 column) of the same compound?
A: 82%

Q: And the viability at 5 µM ([2]; second HCT116 column)?
A: 68%

Q: And the viability at 96 h, 5 µM ([3]; first FS column)?
A: 80%

Q: What about the viability at 96 h, 5 µM ([3]; second FS column) of the same compound?
A: 101%

Q: And the viability at 5 µM ([4]; first HT29 column)?
A: 50%

Q: And the viability at 5 µM ([4]; second HT29 column)?
A: 53%

Q: With `CC(C)c1ccc(-c2cn3nc(N4CCC(C(=O)N5CCN(CC(=O)NCCN(C)C)CC5)CC4)sc3n2)cc1` [Compound Z522-0241, N-[2-(dimethylamino)ethyl]-2-[4-({1-[6-(4-isopropylphenyl)imidazo[2,1-b][1,3,4]thiadiazol-2-yl]piperidin-4-yl}carbonyl)piperazin-1-yl]acetamide] as the compound, how does the viability at 5 µM ([1]; second RKO column) read?
A: 0%

Q: What about the viability at 5 µM ([2]; first HCT116 column) of the same compound?
A: 33%

Q: And the viability at 5 µM ([2]; second HCT116 column)?
A: 36%

Q: What about the viability at 96 h, 5 µM ([3]; first FS column) of the same compound?
A: 78%

Q: What about the viability at 96 h, 5 µM ([3]; second FS column) of the same compound?
A: 88%

Q: What about the viability at 5 µM ([4]; first HT29 column) of the same compound?
A: 0%

Q: And the viability at 5 µM ([4]; second HT29 column)?
A: 0%

Q: Which viability at 5 µM ([1]; first RKO column) does the source give for `CC(C)c1ccc(-c2cn3nc(N4CCC(C(=O)N5CCCN(c6ncccn6)CC5)CC4)sc3n2)cc1` [Compound Z522-0242, 6-(4-isopropylphenyl)-2-{4-[(4-pyrimidin-2-yl-1,4-diazepan-1-yl)carbonyl]piperidin-1-yl}imidazo[2,1-b][1,3,4]thiadiazole] here?
A: 55%

Q: And the viability at 5 µM ([1]; second RKO column)?
A: 50%

Q: And the viability at 5 µM ([2]; first HCT116 column)?
A: 88%

Q: What about the viability at 5 µM ([2]; second HCT116 column) of the same compound?
A: 86%

Q: What about the viability at 96 h, 5 µM ([3]; first FS column) of the same compound?
A: 89%

Q: What about the viability at 96 h, 5 µM ([3]; second FS column) of the same compound?
A: 123%

Q: What about the viability at 5 µM ([4]; first HT29 column) of the same compound?
A: 72%

Q: And the viability at 5 µM ([4]; second HT29 column)?
A: 66%
